Laboratory results: patent US12257237B2 (priority 2017, dated 2025)
“And” between values parts separate entries of the source, which are not always exact repeats. Identical values can stand only once.

Columns and labels:
[1] = Drug tolerability (body weight) in DD013 dedifferentiated liposarcoma xenograft model; type: in vivo, Athymic nude mice; conditions: for BWL % / Mouse body weight, Mean: Doxo (8 mg/kg)
Procedure: (§1) Experiments were performed with female Athymic nude mice, 9-10 weeks old obtained from Harlan Laboratories (Udine, Italy). They were maintained under Specific Pathogen Free conditions with constant temperature and humidity, according to the institutional guidelines.
(§2) Tumour growth mice was monitored two/three times a week (depending on tumour growth rate, to avoid unnecessary stress to the animals) by Vernier caliper. Mice were sacrificed when tumour reached a mean weight of 2±0.5 gr. The antitumour activity will be expressed as T/C %, where T and C were the mean tumour weight of treated and control groups, respectively. Mice were monitored daily and weighted at least two times a week. Tolerability was evaluated on the basis of body weight loss (BWL) and clinical observation.

[2] = system: DD013 dedifferentiated liposarcoma; experiment: Antitumour activity in DD013 dedifferentiated liposarcoma xenograft model; type: in vivo, Athymic nude mice; conditions: for DD0113 tumour weight, Mean / DD0113 tumour weight, individual mouse: Doxorubicin 8 mg/kg q7dx2
Procedure: as §1, §2
Statistical analysis was performed with GraphPad Prism version 6.01 software (GraphPad software, Inc., La Jolla, CA, USA). ANOVA test was performed to evaluate if there were statistically significant differences between treated and control groups.
Briefly, xenografts were obtained by transplanting 3-4 mm tumour fragments s.c. in the flanks of mice. The growing tumour masses were measured with the aid of a Vernier caliper, and the tumour weights (TW, 1 mm^3=1 mg) were calculated by the formula: length×(width) 2/2. When tumour load achieved about 200-400 mg, mice were randomized into the experimental groups.

## COc1cccc2c1C(=O)c1c(O)c3c(c(O)c1C2=O)C[C@@](O)(C(=O)CO)C[C@@H]3O[C@H]1C[C@H](N)[C@H](O)[C@H](C)O1 [Doxo]
[1]; day 23 from inoculum
  BWL %: 0.0%
  Mouse body weight, Mean: 23.7 g
[1]; day 26 from inoculum
  BWL %: −2.6%
  Mouse body weight, Mean: 23.0 g
[1]; day 29 from inoculum
  BWL %: −0.3%
  Mouse body weight, Mean: 23.6 g
[1]; day 33 from inoculum
  BWL %: −5.2%
  Mouse body weight, Mean: 22.4 g
[1]; day 36 from inoculum
  BWL %: −1.7%
  Mouse body weight, Mean: 23.3 g
[1]; day 40 from inoculum
  BWL %: 0.7%
  Mouse body weight, Mean: 23.8 g
[1]; day 43 from inoculum
  BWL %: 4.0%
  Mouse body weight, Mean: 24.6 g
[1]; day 47 from inoculum
  BWL %: 8.4%
  Mouse body weight, Mean: 25.7 g
[1]; day 50 from inoculum
  BWL %: 5.1%
  Mouse body weight, Mean: 24.9 g
[1]; day 54 from inoculum
  BWL %: 5.5%
  Mouse body weight, Mean: 25.0 g
[1]; day 58 from inoculum
  BWL %: 5.8%
  Mouse body weight, Mean: 25.0 g
[1]; day 62 from inoculum
  BWL %: 8.9%
  Mouse body weight, Mean: 25.8 g
[1]; day 65 from inoculum
  BWL %: 7.4%
  Mouse body weight, Mean: 25.4 g
[1]; day 69 from inoculum
  Mouse body weight, Mean: 26.6 g
[1]; day 72 from inoculum
  BWL %: 10.0%
  Mouse body weight, Mean: 26.0 g
[1]; day 75 from inoculum
  BWL %: 10.3%
  Mouse body weight, Mean: 26.1 g

## COc1cccc2c1C(=O)c1c(O)c3c(c(O)c1C2=O)C[C@@](O)(C(=O)CO)C[C@@H]3O[C@H]1C[C@H](N)[C@H](O)[C@H](C)O1 [Doxorubicin, reference compound]
[1]; 8 mg/kg, day 33
  maximum BWL: 5.2%
[2]; 8 mg/kg i.v. q7dx2
  optimal T/C: 34.1%
[2]; 8 mg/kg q7dx2
  effect on tumour growth: No arrest of tumour growth was observed
[2]; day 23 from inoculum
  DD0113 tumour weight, Mean: 199.3 mg
  DD0113 tumour weight, individual mouse: 302.2 mg and 277.0 mg and 253.6 mg and 228.6 mg and 196.0 mg and 178.0 mg and 147.0 mg and 114.2 mg and 97.6 mg
[2]; day 26 from inoculum
  DD0113 tumour weight, Mean: 295.8 mg
  DD0113 tumour weight, individual mouse: 464.9 mg and 410.3 mg and 365.9 mg and 384.0 mg and 308.8 mg and 283.4 mg and 232.9 mg and 87.4 mg
[2]; day 29 from inoculum
  DD0113 tumour weight, Mean: 336.6 mg
  DD0113 tumour weight, individual mouse: 492.1 mg and 380.4 mg and 478.9 mg and 477.1 mg and 398.0 mg and 313.2 mg and 252.9 mg and 147.9 mg and 89.3 mg
[2]; day 33 from inoculum
  DD0113 tumour weight, Mean: 409.1 mg
  DD0113 tumour weight, individual mouse: 566.5 mg and 526.0 mg and 691.7 mg and 549.0 mg and 444.0 mg and 344.6 mg and 295.0 mg and 150.3 mg
[2]; day 36 from inoculum
  DD0113 tumour weight, Mean: 425.8 mg
  DD0113 tumour weight, individual mouse: 549.6 mg and 572.5 mg and 610.4 mg and 519.4 mg and 503.4 mg and 361.9 mg and 345.6 mg and 240.6 mg
[2]; day 40 from inoculum
  DD0113 tumour weight, Mean: 499.7 mg
  DD0113 tumour weight, individual mouse: 578.4 mg and 652.6 mg and 762.1 mg and 750.9 mg and 531.1 mg and 424.1 mg and 401.6 mg and 244.9 mg and 151.8 mg
[2]; day 43 from inoculum
  DD0113 tumour weight, Mean: 543.1 mg
  DD0113 tumour weight, individual mouse: 529.7 mg and 810.5 mg and 868.0 mg and 780.2 mg and 575.9 mg and 420.0 mg and 428.4 mg and 263.0 mg and 212.3 mg
[2]; day 47 from inoculum
  DD0113 tumour weight, Mean: 666.3 mg
  DD0113 tumour weight, individual mouse: 623.2 mg and 800.6 mg and 669.1 mg and 636.6 mg and 529.5 mg and 430.2 mg and 224.5 mg
[2]; day 50 from inoculum
  DD0113 tumour weight, Mean: 716.0 mg
  DD0113 tumour weight, individual mouse: 561.6 mg and 1194.0 mg and 680.6 mg
[2]; day 54 from inoculum
  DD0113 tumour weight, Mean: 810.3 mg
  DD0113 tumour weight, individual mouse: 776.7 mg and 1306.3 mg and 1175.7 mg and 807.3 mg
[2]; day 58 from inoculum
  DD0113 tumour weight, Mean: 958.1 mg
  DD0113 tumour weight, individual mouse: 819.5 mg and 1324.9 mg and 1508.4 mg and 1392.3 mg
[2]; day 62 from inoculum
  DD0113 tumour weight, Mean: 1128.5 mg
  DD0113 tumour weight, individual mouse: 955.7 mg and 1686.9 mg and 1777.9 mg and 1604.2 mg
[2]; day 65 from inoculum
  DD0113 tumour weight, Mean: 1312.4 mg
  DD0113 tumour weight, individual mouse: 960.1 mg and 1836.1 mg and 2144.7 mg and 1949.8 mg and 1415.2 mg
[2]; day 69 from inoculum
  DD0113 tumour weight, Mean: 1491.3 mg
  DD0113 tumour weight, individual mouse: 1238.0 mg and 2045.0 mg and 2383.0 mg and 2019.6 mg and 1526.2 mg
[2]; day 72 from inoculum
  DD0113 tumour weight, Mean: 1712.4 mg
  DD0113 tumour weight, individual mouse: 1440.5 mg and 2810.6 mg and 2245.9 mg and 1770.1 mg
[2]; day 75 from inoculum
  DD0113 tumour weight, Mean: 1970.8 mg
  DD0113 tumour weight, individual mouse: 1747.2 mg and 3155.1 mg and 2700.8 mg and 2034.9 mg
